Results taken from patent US7098204B2 (C.N.R.S., priority 1999, dated 2006).
Values after ≈ are worked out from the molar mass of the structure shown. Where two headings read alike, the source gives them in different places.

Legend:
CDK1/cyclin B = CDK1/cyclin B kinase assay (histone H1); format: biochemical, starfish (Marthasterias glacialis); conditions: 15 μM ATP; −(x) = no effect at highest concentration x tested
Description: (§1) Kinases activities were assayed in Buffer A or C (unless otherwise stated), at 30° C., at a final ATP concentration of 15 μM. Blank values were subtracted and activities calculated as pmoles of phosphate incorporated for a 10 min. incubation (usually expressed in % of the maximal activity, i.e. without inhibitors). Controls were performed with appropriate dilutions of Me2SO. In some cases phosphorylation of the substrate was assessed by autoradiography after SDS-PAGE. IC50 values were estimated from the dose-response curves. • CDK1/cyclin B was extracted in homogenisation buffer from M phase starfish (Marthasterias glacialis) oocytes and purified by affinity chromatography on p9^CKShs1-Sepharose beads, from which it was eluted by free p9^CKShs1 as described. The kinase activity was assayed in buffer C, with 1 mg histone H1/ml, in the presence of 15 μM [γ-^32P] ATP (3,000 Ci/mmol; 1 mCi/ml) in a final volume of 30 μl. After 10 min. incubation at 30° C., 25 μl aliquots of supernatant were spotted onto 2.5×3 cm pieces of Whatman P81 phosphocellulose paper, and, 20 sec. later, the filters were washed five times (for at least 5 min. each time) in a solution of 10 ml phosphoric acid/liter of water. The wet filters were counted in the presence of 1 ml ACS (Amersham) scintillation fluid. • GSK-3β was either purified from rabbit muscle or expressed in and purified from insect Sf9 cells. It was assayed, following a 1/100 dilution in 1 mg BSA/ml 10 mM DTT, with 5 μl 40 μM GS-1 peptide as a substrate, in buffer A, in the presence of 15 μM [γ-^32P] ATP (3,000 Ci/mmol; 1 mCi/ml) in a final volume of 30 μl. […] Its activity was assayed in buffer C as described for CDK1/cyclin B. • CDK2/cyclin A, CDK2/cyclin E, CDK3/cyclin E, CDK4/cyclin D1, CDK6/cyclin D2, His-tagged erk1 and erk2, protein kinase C isoforms, the catalytic subunit of cAMP-dependent protein kinase, cGMP-dependent protein kinase, Myosin light chain kinase, casein kinases 1 & 2, ASK-γ (a plant homologue of GSK-3), insulin receptor tyrosine kinase domain (CIRK-41), c-raf, MAPKK, c-jun N terminal kinase (obtained from Promega), c-src kinase and v-abl kinase were assayed as described. Electrophoresis and Western Blotting

cdk5/p25 = cdk5/p25 (Homo sapiens, UniProt Q00535); assay: CDK5/p25 kinase assay; format: biochemical; conditions: for IC50: 15 μM ATP, −(x) = no effect at highest concentration x tested
Description: as §1

GSK3-β = target: T1, GSK3-β (UniProt P18266); assay: GSK-3β kinase assay (GS-1 peptide); format: biochemical, rabbit
T1 construct: GSK-3β was either purified from rabbit muscle or expressed in and purified from insect Sf9 cells [18]
Description: as §1

casein kinase 1 = casein kinase 1 assay; format: biochemical; conditions: 15 μM ATP; −(x) = no effect at highest concentration x tested; read-out: IC50 casein kinase 1 (CK 1)
Description: as §1

P388 cell line = assay: Inhibition of cell proliferation, P388; format: cell-based
[1] = test system: GSK-3β like activity in Sf9 cells; assay: Tau (htau23) phosphorylation in Sf9 cells, Western blotting; format: cell-based; conditions: 50 μM, 5 hrs, Sf9 cells expressing htau23
ovary, OVCAR-3 = assay: Human cancer cell line OVCAR-3 proliferation; format: cell-based
brain, SF-295 = assay: Human cancer cell line SF-295 proliferation; format: cell-based
kidney, A498 = assay: Human cancer cell line A498 proliferation; format: cell-based
lung, H460 = assay: Human cancer cell line H460 proliferation; format: cell-based; conditions: NCI-H460
colon, KM20L2 = assay: Human cancer cell line KM20L2 proliferation; format: cell-based; conditions: KM-20L2
melanoma, SK-MEL-5 = assay: Human cancer cell line SK-MEL-5 proliferation; format: cell-based
[2] = 15 μM ATP, −(x) = no effect at highest concentration x tested, read-out: IC50 GSK3-β

Sequence of cdk5/p25 (Q00535 whole entry, species assumed): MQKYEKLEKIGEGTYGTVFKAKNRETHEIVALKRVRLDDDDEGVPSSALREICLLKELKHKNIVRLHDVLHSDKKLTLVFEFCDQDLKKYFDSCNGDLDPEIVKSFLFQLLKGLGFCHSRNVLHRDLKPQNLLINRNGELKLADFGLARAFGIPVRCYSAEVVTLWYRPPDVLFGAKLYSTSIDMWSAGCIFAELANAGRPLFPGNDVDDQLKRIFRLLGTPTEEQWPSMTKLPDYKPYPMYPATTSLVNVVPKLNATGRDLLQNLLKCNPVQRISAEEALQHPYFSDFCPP
Sequence of cdk5/p25 (Q15078 99-307 partner limits assumed, species assumed): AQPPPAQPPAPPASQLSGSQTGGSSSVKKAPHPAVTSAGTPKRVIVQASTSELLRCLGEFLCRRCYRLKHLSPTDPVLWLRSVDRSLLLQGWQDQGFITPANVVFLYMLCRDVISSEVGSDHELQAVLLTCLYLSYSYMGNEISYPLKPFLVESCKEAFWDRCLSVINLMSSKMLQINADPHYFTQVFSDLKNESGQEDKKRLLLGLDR

Molecule	IC50 (CDK1/cyclin B) [µM]	IC50 (cdk5/p25) [µM]	IC50 (GSK3-β; [2]) [µM]	IC50 (casein kinase 1) [µM]	also measured
diacetylhymenialdisine	0.13	1.5	0.16	0.55	IC50 on P388 cell line (P388 cell line): 0.56 µg/mL; IC50 (P388 cell line; read-out: IC50 on P388 cell line in μM (parentheses)): 1.7 µM
CN1CC[C@H](c2c(O)cc(O)c3c(=O)cc(-c4ccccc4Cl)oc23)[C@H](O)C1 [flavopiridol, reference compound]	–	–	–	–	AT100 signal (tau phosphorylated at T212 and S214) [1]: disappearance of AT100 signal
NC1=N[C@H]2n3c(cc(Br)c3Br)C(=O)N3CCC[C@]23N1 [dibromophakellin, reference compound]	–	–	–	–	IC50 (ovary, OVCAR-3): 15.7 µg/mL (≈ 40.4 µM); IC50 (brain, SF-295): 18.8 µg/mL (≈ 48.3 µM); IC50 (kidney, A498): 17.8 µg/mL (≈ 45.8 µM); IC50 (lung, H460): 22 µg/mL (≈ 56.5 µM); IC50 (colon, KM20L2): 20.1 µg/mL (≈ 51.7 µM); IC50 (melanoma, SK-MEL-5): 17 µg/mL (≈ 43.7 µM)
agelastatin A	> 100	> 100	12	> 100	–
Nc1ncc(/C=C/CNC(=O)c2ccc[nH]2)[nH]1 [clathrodin]	> 100	> 100	–	> 100	–
O=C1NC(=O)/C(=C2/CCNC(=O)c3[nH]c(Br)cc32)N1 [axinohydantoin]	4	7	3	4.5	–
Nc1nc([C@H]2[C@H](CNC(=O)c3cc(Br)c[nH]3)[C@@H](CNC(=O)c3cc(Br)c[nH]3)[C@@H]2c2c[nH]c(N)n2)c[nH]1 [sceptrin]	> 100	> 100	> 100	> 100	–
NC1=NC(=O)/C(=C/CCNC(=O)c2cc(Br)c(Br)[nH]2)N1 [dispacamide A]	> 100	> 100	> 100	> 100	–
O=C1N[C@H]2n3c(cc(Br)c3Br)C(=O)N3CCC[C@]23N1 [dibromophakellstatin]	> 10	> 100	> 10	> 10	IC50 (ovary, OVCAR-3): 0.46 µg/mL (≈ 1.18 µM); IC50 (brain, SF-295): 1.5 µg/mL (≈ 3.85 µM); IC50 (kidney, A498): 0.21 µg/mL (≈ 0.538 µM); IC50 (lung, H460): 0.62 µg/mL (≈ 1.59 µM); IC50 (colon, KM20L2): 0.11 µg/mL (≈ 0.282 µM); IC50 (melanoma, SK-MEL-5): 0.11 µg/mL (≈ 0.282 µM)
O=C([O-])c1ccc[n+](CCOC(=O)c2cc(Br)c[nH]2)c1 [agelongine]	> 100	> 100	> 100	> 100	–
NC1=N[C@H]2c3c([nH]c(Br)c3Br)C(=O)N3CCC[C@]23N1 [dibromocantharelline]	> 100	> 100	–	> 100	IC50 (GSK3-β; read-out: IC50 towards GSK-3β): 3 µM
Nc1ncc(C2c3nc(N)[nH]c3CC(CNC(=O)c3cc(Br)c(Br)[nH]3)C2CNC(=O)c2cc(Br)c(Br)[nH]2)[nH]1 (centres unmarked) [dibromoageliferin]	> 100	> 100	11	> 100	–

Further lines, with some results ahead:

IC50 (CDK1/cyclin B) [µM]	IC50 (cdk5/p25) [µM]	IC50 (GSK3-β; [2]) [µM]	IC50 (casein kinase 1) [µM]	Molecule	also measured
> 100	50	20	> 100	Nc1ncc(/C=C/CNC(=O)c2cc(Br)c(Br)[nH]2)[nH]1 [oroïdin]	–
70	> 100	> 100	> 100	Nc1ncc(C2=CCNC(=O)c3[nH]c(Br)c(Br)c32)[nH]1 [stevensine/odiline]	–
> 100	4	12	> 100	Nc1ncc(/C=C/CNC(=O)c2cc(Br)c[nH]2)[nH]1 [hymenidin]	kinase selectivity among CDK1, CDK5, GSK-3β, CK1 (cdk5/p25; in words): selective for CDK5
1.3	3	0.6	1.1	diacetyldebromohymenialdisine	–
